Source: paper PMC8206078, “Identification of pyrogallol as a warhead in design of covalent inhibitors for the SARS-CoV-2 3CL protease” (Nature Communications, 2021)
Values joined by “and” are separate entries in the source; they are usually repeats but may differ in a detail not shown here. Equal entries are not always repeated. Where two headings read alike, the source gives them in different places.

How the values were obtained:
[1] = system: SARS-CoV-2 replication in Vero E6 cells; assay: microbe, parasite or virus in culture; assay type: cell-based
[2] = for myricetin consumed: GSH, 600 min
[3] = system: SARS-CoV-2 replication in Vero E6 cells; conditions: cited from earlier work
[4] = male, ICR, in vivo, po, 30 mg/kg
PK study in mice = conditions: mouse; for half-life: male, ICR, plasma; for T1/2: individual animals
in vivo = conditions: male, ICR, mouse; for AUC(0-inf): AUCINF_obs; for AUC(0-t): AUClast; for MRT inf: MRTINF_obs; for half-life: T1/2
[5] = molecular target: chymotrypsin from bovine pancreas (Bos taurus, UniProt P00766); assay: biochemical
in vitro = conditions: African green monkey
SARS-CoV-2 PLpro = SARS-CoV-2 PLpro (Severe acute respiratory syndrome coronavirus 2, UniProt P0DTD1); assay type: biochemical
[6] = Severe acute respiratory syndrome coronavirus 2, Vero C1008
[7] = Severe acute respiratory syndrome coronavirus 2, Vero C1008, 24 h
[8] = iv, 10 mg/kg, Concentration in mouse plasma, Mean
[9] = po, 30 mg/kg, Concentration in mouse plasma
[10] = po, 30 mg/kg, Concentration in mouse plasma, Mean

## O=C1c2c(O)cc(OP(=O)(Oc3ccccc3)Oc3ccccc3)cc2O[C@H](c2cc(O)c(O)c(O)c2)[C@H]1O [compound 10]
[1]
  EC50: 6.99 µM and 8.24 µM and 10.2 µM and 10.4 µM and 8.4 µM
[1]; [6]
  EC50: 9.94 µM
[1]; [7]
  EC50: 9.03 µM

## CCC(CC)COC(=O)[C@H](C)N[P@](=O)(OC[C@H]1O[C@@](C#N)(c2ccc3c(N)ncnn23)[C@H](O)[C@@H]1O)Oc1ccccc1 [remisivir]
Vero E6 cells; concentration 2.34375 (unit not given)
  inhibition ratio (%): 99.5877% and 102.33% and 102.223%
Vero E6 cells; concentration 4.6875 (unit not given)
  inhibition ratio (%): 100.126% and 103.513% and 104.159%
Vero E6 cells; concentration 9.375 (unit not given)
  inhibition ratio (%): 103.244% and 98.6198% and 99.2113%
Vero E6 cells; concentration 18.75 (unit not given)
  inhibition ratio (%): 101.362% and 100.126% and 95.6085%
Vero E6 cells; concentration 37.5 (unit not given)
  inhibition ratio (%): 102.707% and 103.352% and 97.8132%
Vero E6 cells; concentration 75 (unit not given)
  inhibition ratio (%): 97.383% and 95.0708% and 98.7274%
Vero E6 cells; concentration 150 (unit not given)
  inhibition ratio (%): 83.7247% and 84.1011% and 85.4454%
Vero E6 cells; concentration 300 (unit not given)
  inhibition ratio (%): 42.4807% and 43.2336% and 43.126%
[1]; read-out: EC50 (µM) Mean
  EC50: 3.68 µM

## O=C1c2c(O)cc(O)cc2O[C@H](c2cc(O)c(O)c(O)c2)[C@H]1O [dihydromyricetin]
[1]
  EC50: 13.9 µM and 9.94 µM and 13.7 µM and 14 µM and 17.6 µM
[1]; [6]
  EC50: 12.3 µM
[1]; [7]
  EC50: 13.6 µM

## CCC(CC)COC(=O)[C@H](C)N[P@](=O)(OC[C@H]1O[C@@](C#N)(c2ccc3c(N)ncnn23)[C@H](O)[C@@H]1O)Oc1ccccc1 [remdesivir, reference compound]
[1]; [7]
  EC50: 3.68 µM

## O=c1c(O)c(-c2cc(O)c(O)c(O)c2)oc2cc(OCC3CCCC3)cc(O)c12 [compound 6, 7-O-cyclopentylmethyl-myricetin]
[1]; 100 µM
  inhibition ratio (%): 99.992% and 99.991% and 99.989% and 98.833% and 95.7336% and 99.607% and 99.987% and 99.985%
[1]; read-out: EC50
  EC50: 10.1 µM and 7.07 µM and 5.5 µM

## O=c1cc(-c2ccccc2)oc2cc(O)c(O)c(O)c12 [baicalein, reference compound]
[2]
  adduct with GSH: no adduct of GSH with baicalein was detected
[3]
  EC50: 2.94 µM

## COc1cc(O)c2c(c1)O[C@H](c1cc(O)c(O)c(O)c1)[C@@H](O)C2=O [compound 7, 7-O-methyl dihydromyricetin]
[4]; 8 h
  Concentration in mouse plasma: 11.5 ng/mL
PK study in mice; iv, 10 mg/kg, T1/2, mice, i.v. 10 mg/kg
  half-life: 34.8 ± 37.8 min
PK study in mice; iv, 10 mg/kg, T1/2, mouse, i.v. 10 mg/kg, mean
  half-life: 34.8 min
PK study in mice; po, 30 mg/kg, T1/2, mice, p.o. 30 mg/kg
  half-life: 104 min
PK study in mice; po, 30 mg/kg, T1/2, mouse, p.o. 30 mg/kg, mean
  half-life: 104 min
PK study in mice; i.v. 10 mg/kg, 10 mg/kg
  T1/2: 7.2 min and 97.2 min and 5.4 min and 40.2 min and 22.8 min
PK study in mice; p.o. 30 mg/kg, 30 mg/kg
  T1/2: 111 min and 187 min and 86.4 min and 78.6 min and 58.8 min
[1]; 6.25 µM
  inhibition ratio (%): 21.811% and 15.067% and 12.154%
[1]; 25 µM
  inhibition ratio (%): 58.083% and 57.749% and 55.409%
[1]; 50 µM
  inhibition ratio (%): 75.679% and 73.921% and 74.205%
[1]; 200 µM
  inhibition ratio (%): 99.619% and 99.626% and 99.565%
[1]; [7]
  EC50: 11.5 µM
In vivo
  bioavailability: 18.1%
In vivo; iv, 10 mg/kg
  MRT: 41.4 ± 51.6 min
In vivo; [8]
  concentration at 0.05 h: 3190 ng/mL
  concentration at 2 h: 62.4 ng/mL
  concentration at 4 h: 23.6 ng/mL
  concentration at 8 h: 0 ng/mL
  concentration at 24 h: 0 ng/mL
In vivo; po, 30 mg/kg
  MRT: 113 min
  Tmax: 15 min
  bioavailability: 18.1%
  AUC(0-inf): 588 ng·h/mL
  AUC(0-t): 510 ng·h/mL
In vivo; [9]
  concentration at 0.5 h: 200 ng/mL
  concentration at 1 h: 112 ng/mL
  concentration at 8 h: 10.1 ng/mL
In vivo; [10]
  concentration at 0.5 h: 279 ng/mL
  concentration at 1 h: 118 ng/mL
  concentration at 2 h: 61.2 ng/mL
  concentration at 4 h: 32.9 ng/mL
  concentration at 8 h: 4.32 ng/mL
  concentration at 24 h: 0 ng/mL

## O=c1c(O)c(-c2cc(O)c(O)c(O)c2)oc2cc(OP(=O)(Oc3ccccc3)Oc3ccccc3)cc(O)c12 [compound 9]
[1]; [7]
  EC50: 3.15 µM

## N-phenylacrylamide [reference compound]
[2]
  kpseudo1st: 0.02117 and 0.01952 and 0.0207

## COc1cc(O)c2c(=O)c(O)c(-c3cc(O)c(O)c(O)c3)oc2c1 [compound 3, 7-O-methyl myricetin]
[1]; [7]
  EC50: 12.6 µM

## O=c1c(O)c(-c2cc(O)c(O)c(O)c2)oc2cc(O)cc(O)c12 [myricetin, 3,5,7,3′,4′,5′-hexahydroxyflavone]
[2]; absence of oxygen
  myricetin consumed: 11%
[2]; myricetin reacting with glutathione, 0h
  Ln(%parent): 4.593 and 4.572 and 4.649
[2]; myricetin reacting with glutathione, 2h
  Ln(%parent): 4.472 and 4.529 and 4.531
[2]; myricetin reacting with glutathione, 4h
  Ln(%parent): 4.27 and 4.376 and 4.3091
[2]; myricetin reacting with glutathione, 6h
  Ln(%parent): 4.107 and 4.203 and 4.174
[2]; myricetin reacting with glutathione, 8h
  Ln(%parent): 3.902 and 4.0179 and 3.984
[2]; myricetin reacting with glutathione, 10h
  Ln(%parent): 3.729 and 3.812 and 3.826
[2]; myricetin reacting with glutathione, single independent experiment
  kpseudo1st: 0.001475 and 0.001311 and 0.001403
[2]; presence of oxygen
  myricetin consumed: 65%
[4]; mouse
  T1/2: 26.4 min
[1]; [7]
  EC50: 8 µM
[5]
  IC50: 132 ± 10.6 µM
  times weaker than against 3CLpro: more than 100
In vitro
  CC50: > 200 µM
SARS-CoV-2 PLpro
  times weaker than against 3CLpro: more than 100
In vivo; ip, 10 mg/kg
  MRT: 5.4 min
  AUC(0-inf): 1040 ng·h/mL
  AUC(0-t): 1090 ± 103 ng·h/mL
  Cmax: 1800 ± 346 ng/mL
  MRT inf: 66.6 min
  half-life: 126 ± 1.2 min
In vivo; po, 30 mg/kg
  MRT: 50.4 min
  AUC(0-inf): 8.51 ng·h/mL
  AUC(0-t): 6.07 ng·h/mL
  Cmax: 8.59 ng/mL
  MRT inf: 50.4 min
  half-life: 26.4 min
In vivo; po, 30 mg/kg, Tmax
  Tmax: 30 min
